Eight molecules from patent US20240417410A1, “TRICYCLIC COMPOUNDS FOR THE TREATMENT OF CANCER” (Hoffmann-La Roche Inc., priority 2023, published 2024) can be followed below.

For orientation: IC50 means the concentration needed to halve the response being measured. A low value points to greater potency.

The subject of test [1] is phosphorylation of ERK, KRAS G12V in SW620. As to the kind of experiment: pERK inhibition assay. It is filed as cell-based. The following applies: Homo sapiens, SW-620, 4 h, SW620 cells. The essentials: (§1)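 Phospho-ERK quantified by in-cell ELISA with TMB read-out at OD450 following 4 h compound exposure (final 0.5% DMSO). Cell lines were SW620 (KRAS G12V), AGS (G12D) and NCI-H358 (G12C), grown in RPMI-1640 with 10% FBS. A 4-parameter sigmoidal model gave the IC50.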

In test [2] the test system is phosphorylation of ERK, KRAS G12D in AGS cells. As to the kind of experiment: pERK inhibition assay. It counts as cell-based. The following applies: Homo sapiens, AGS, 4 h. The essentials: as §1
The subject of test [3] is phosphorylation of ERK, KRAS G12C in NCI-H358 cells. Description: pERK inhibition assay. It counts as cell-based. The following applies: Homo sapiens, NCI-H358, 4 h. The essentials:
as §1

The target in test [4] is KRAS G12C-BRAF complex (Homo sapiens (Human), UniProt P01116+P62937, G12C). Description: KRAS-BRAF with CYPA (500 nM) interaction assay (TR-FRET, Example 136). The following applies: KRAS G12C-BRAF disruption. It is filed as biochemical. Background: In TR-FRET formats the signal depends on donor and acceptor labels being close together.
Sequence of KRAS G12C-BRAF complex (P01116-2 other isoform, or with tags, fused parts or gaps G12C): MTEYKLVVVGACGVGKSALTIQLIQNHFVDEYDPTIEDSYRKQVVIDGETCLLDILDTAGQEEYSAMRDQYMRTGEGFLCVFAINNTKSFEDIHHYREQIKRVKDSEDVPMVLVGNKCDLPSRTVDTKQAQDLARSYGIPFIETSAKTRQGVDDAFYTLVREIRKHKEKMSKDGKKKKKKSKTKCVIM
Sequence of KRAS G12C-BRAF complex (P62937 whole entry): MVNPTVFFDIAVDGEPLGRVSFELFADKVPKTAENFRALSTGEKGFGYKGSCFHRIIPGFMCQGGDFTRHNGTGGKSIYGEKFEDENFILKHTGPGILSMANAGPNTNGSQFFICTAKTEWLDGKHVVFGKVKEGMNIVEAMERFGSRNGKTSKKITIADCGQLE
Test [5] deals with AGS cells (KRAS G12D). As to the kind of experiment: Cell viability assay (Cell Counting Kit-8, 3-day). It is filed as cell-based, human. The conditions noted are these: Homo sapiens, 72 h, 72 hrs incubation. The procedure, abridged: (§2)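 72-hr compound treatment, 0.5% DMSO final; NCI-H358 seeded 5,000 cells/well, AGS and SW620 2,000 cells/well. Endpoint: CCK-8, 2-hr development, OD450 minus OD650.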
Background: Tetrazolium dyes change colour on reduction, which living cells bring about.

For test [6], the system named is SW620 cells (KRAS G12V). Description: Cell viability assay (Cell Counting Kit-8, 3-day). It counts as cell-based, human. The following applies: Homo sapiens, SW-620; SW620, 72 hrs incubation. The procedure, abridged:
as §2

For test [7], the system named is NCI-H358 cells (KRAS G12C). Description: Cell viability assay (Cell Counting Kit-8, 3-day). It is filed as cell-based, human. The conditions noted are these: Homo sapiens, NCI-H358, 72 h, NCI-H358, 72 hrs incubation. The essentials: as §2

As for `CO[C@@H](C)c1ncc(N2CCN3CCCC[C@@H]3C2)cc1-c1c2c3cc(cc4c3n1CCC4)-c1csc(n1)C[C@H](NC(=O)[C@H]1[C@H](C)[C@@H]1C)C(=O)N1CCC[C@H](N1)C(=O)OCC(C)(C)C2` (atropisomer, axis not shown; (M)) [Example 101, (1r,2S,3R)-N-[(7S,13S)-(20M)-20-[5-[(9αR)-1,3,4,6,7,8,9,9a-octahydropyrido[1,2-a]pyrazin-2-yl]-2-[(1S)-1-methoxyethyl]-3-pyridyl]-17,17-dimethyl-8,14-dioxo-15-oxa-4-thia-9,21,30,31-tetrazahexacyclo[23.3.1.1^2,5.1^9,13.0^19,27.0^21,26]hentriaconta-1 (28),2,5 (31),19,25 (29),26-hexaen-7-yl]-2,3-dimethyl-cyclopropanecarboxamide], the half-inhibitory concentration (IC50) was 0.2 nM in test [1]; 2.6 nM in test [2]; 0.9 nM in test [3]; 5.4 nM in test [4]; 6.9 nM in test [5]; 0.3 nM in test [6]. Also, half-maximal inhibition in test [7] (IC50) was put at 1.8 nM.

In the case of `CO[C@@H](C)c1ncc(N2CCN3CCCC[C@@H]3C2)cc1-c1c2c3cc(cc4c3n1CCC4)-c1csc(n1)C[C@H](NC(=O)[C@H]1C[C@@H]1c1cccnc1)C(=O)N1CCC[C@H](N1)C(=O)OCC(C)(C)C2` (atropisomer, axis not shown; (M)) [Example 102, (1S,2S)-N-[(7S,13S)-(20M)-20-[5-[(9αR)-1,3,4,6,7,8,9,9a-octahydropyrido[1,2-a]pyrazin-2-yl]-2-[(1S)-1-methoxyethyl]-3-pyridyl]-17,17-dimethyl-8,14-dioxo-15-oxa-4-thia-9,21,30,31-tetrazahexacyclo[23.3.1.1^2,5.1^9,13.0^19,27.0^21,26]hentriaconta-1 (28),2,5 (31),19,25 (29),26-hexaen-7-yl]-2-(3-pyridyl)cyclopropanecarboxamide], the half-maximal inhibitory concentration (IC50) in test [1] was found to be 0.7 nM; in test [2], 2 nM; in test [3], 1.1 nM; in test [4], 6.5 nM; in test [5], 4.9 nM; in test [6] it was 0.4 nM. For the same molecule, the midpoint of inhibition in test [7], the IC50, lay at 1.2 nM.

As to `CO[C@@H](C)c1ncc(N2CCN3CCCC[C@@H]3C2)cc1-c1c2c3cc(cc4c3n1CCC4)-c1csc(n1)C[C@H](NC(=O)[C@H]1C[C@@H]1c1cncnc1)C(=O)N1CCC[C@H](N1)C(=O)OCC(C)(C)C2` (atropisomer, axis not shown; (M)) [Example 103, (1S,2S)-N-[(7S,13S)-(20M)-20-[5-[(9αR)-1,3,4,6,7,8,9,9a-octahydropyrido[1,2-a]pyrazin-2-yl]-2-[(1S)-1-methoxyethyl]-3-pyridyl]-17,17-dimethyl-8,14-dioxo-15-oxa-4-thia-9,21,30,31-tetrazahexacyclo[23.3.1.1^2,5.1^9,13.0^19,27.0^21,26]hentriaconta-1 (28),2,5 (31),19,25 (29),26-hexaen-7-yl]-2-pyrimidin-5-yl-cyclopropanecarboxamide], the IC50 came to 0.7 nM in test [1]; 2.4 nM in test [2]; 0.7 nM in test [3]; 6 nM in test [4]; 5.2 nM in test [5]; 0.4 nM in test [6]. Further, the 50% inhibitory concentration (IC50) in test [7] is 1.3 nM.

Consider `CO[C@@H](C)c1ncc(N2CCN3CCOC[C@@H]3C2)cc1-c1c2c3cc(cc4c3n1CCC4)-c1csc(n1)C[C@H](NC(=O)[C@H]1C[C@@H]1c1cccnc1)C(=O)N1CCC[C@H](N1)C(=O)OCC(C)(C)C2` (atropisomer, axis not shown; (M)) [Example 104, (1S,2S)-N-[(7S,13S)-(20M)-20-[5-[(9αS)-3,4,6,7,9,9a-hexahydro-1H-pyrazino[2,1-c][1,4]oxazin-8-yl]-2-[(1S)-1-methoxyethyl]-3-pyridyl]-17,17-dimethyl-8,14-dioxo-15-oxa-4-thia-9,21,30,31-tetrazahexacyclo[23.3.1.1^2,5.1^9,13.0^19,27.0^21,26]hentriaconta-1 (28),2,5 (31),19,25 (29),26-hexaen-7-yl]-2-(3-pyridyl)cyclopropanecarboxamide], for which the IC50 in test [1] was 0.4 nM; in test [2], 1.6 nM; in test [3] it was 1 nM; in test [4], 9.8 nM; in test [5] it was 3.8 nM; in test [6], 0.2 nM. Further, the IC50 in test [7] was 0.8 nM.

On to `CO[C@@H](C)c1ncc(N2CCN3CCOC[C@@H]3C2)cc1-c1c2c3cc(cc4c3n1CCC4)-c1csc(n1)C[C@H](NC(=O)[C@H]1C[C@@H]1c1cncnc1)C(=O)N1CCC[C@H](N1)C(=O)OCC(C)(C)C2` (atropisomer, axis not shown; (M)) [Example 105, (1S,2S)-N-[(7S,13S)-(20M)-20-[5-[(9αS)-3,4,6,7,9,9a-hexahydro-1H-pyrazino[2,1-c][1,4]oxazin-8-yl]-2-[(1S)-1-methoxyethyl]-3-pyridyl]-17,17-dimethyl-8,14-dioxo-15-oxa-4-thia-9,21,30,31-tetrazahexacyclo[23.3.1.1^2,5.1^9,13.0^19,27.0^21,26]hentriaconta-1 (28),2,5 (31),19,25 (29),26-hexaen-7-yl]-2-pyrimidin-5-yl-cyclopropanecarboxamide], for which the IC50 in test [1] was 0.4 nM; in test [2] it was 2.2 nM; in test [3], 1.5 nM; in test [4] it was 13.3 nM; in test [5], 6.8 nM; in test [6] it was 0.6 nM. In test [7], this molecule had an IC50 of 1.5 nM.

On to `CO[C@@H](C)c1ncc(N2CCN(C3CC3)CC2)cc1-c1c2c3cc(cc4c3n1CCO4)-c1csc(n1)C[C@H](NC(=O)[C@H]1[C@H](C)[C@@H]1C)C(=O)N1CCC[C@H](N1)C(=O)OCC(C)(C)C2` (atropisomer, axis not shown; (M)) [Example 106, (1r,2R,3S)-N-[(7S,13S)-(20M)-20-[5-(4-cyclopropylpiperazin-1-yl)-2-[(1S)-1-methoxyethyl]-3-pyridyl]-17,17-dimethyl-8,14-dioxo-15,24-dioxa-4-thia-9,21,30,31-tetrazahexacyclo[23.3.1.1^2,5.1^9,13.0^19,27.0^21,26]hentriaconta-1 (28),2,5 (31),19,25 (29),26-hexaen-7-yl]-2,3-dimethyl-cyclopropanecarboxamide], for which the IC50 in test [1] worked out at 0.4 nM; in test [2] it was 3.1 nM; in test [3] it was 1.1 nM; in test [4] it was 10.8 nM; in test [5] it was 8.7 nM; in test [6], 0.4 nM. Besides, the IC50 in test [7] was 4.4 nM.

With `CO[C@@H](C)c1ncc(N2CCOCC2)cc1-c1c2c3cc(cc4c3n1C[C@@H](O)C4)-c1csc(n1)C[C@H](NC(=O)[C@H]1[C@H](C)[C@@H]1C)C(=O)N1CCC[C@H](N1)C(=O)OCC(C)(C)C2` (atropisomer, axis not shown; (M)) [Example 107, (1r,2R,3S)-N-[(7S,13S,23S)-23-hydroxy-(20M)-20-[2-[(1S)-1-methoxyethyl]-5-morpholino-3-pyridyl]-17,17-dimethyl-8,14-dioxo-15-oxa-4-thia-9,21,30,31-tetrazahexacyclo[23.3.1.1^2,5.1^9,13.0^19,27.0^21,26]hentriaconta-1 (28),2,5 (31),19,25 (29),26-hexaen-7-yl]-2,3-dimethyl-cyclopropanecarboxamide], the 50% inhibitory concentration (IC50) in test [1] amounted to 1.5 nM; in test [2], 7.4 nM; in test [3] it was 2.7 nM; in test [4], 47.6 nM; in test [5], 5.4 nM; in test [6], 1.2 nM. In test [7], this molecule had a 50% inhibitory concentration (IC50) of 8.4 nM.

Regarding `CO[C@@H](C)c1ncc(N2CCNCC2)cc1-c1c2c3cc(cc4c3n1CCC4)-c1csc(n1)C[C@H](NC(=O)[C@H]1[C@H](C)[C@@H]1C)C(=O)N1CCC[C@H](N1)C(=O)OCC(C)(C)C2` (atropisomer, axis not shown; (M)) [Example 108, (1r,2R,3S)-N-[(7S,13S)-(20M)-20-[2-[(1S)-1-methoxyethyl]-5-piperazin-1-yl-3-pyridyl]-17,17-dimethyl-8,14-dioxo-15-oxa-4-thia-9,21,30,31-tetrazahexacyclo[23.3.1.1^2,5.1^9,13.0^19,27.0^21,26]hentriaconta-1 (28),2,5 (31), 19,25 (29),26-hexaen-7-yl]-2,3-dimethyl-cyclopropanecarboxamide], the IC50 is 0.5 nM in test [1]; 3.9 nM in test [2]; 1.8 nM in test [3]; 4.6 nM in test [4]; 1.8 nM in test [5]; 0.5 nM in test [6]. The IC50 in test [7] stood at 2.2 nM.
